Test results: patent publication US20090111824A1, “AMIDE LINKED HETEROAROMATIC DERIVATIVES AS MODULATORS OF MGLUR5” (AstraZeneca AB, priority 2007, published 2009)
pIC50: −log10 of the molar value.

Tests used:
[1] = Determination of brain to plasma ratio in rat; assay type: in vivo; conditions: brain and plasma, female Sprague Dawley rats, read-out: Brain/Plasma Ratio of compound in Rat
Protocol: Brain to plasma ratios are estimated in female Sprague Dawley rats. The compound is dissolved in water or another appropriate vehicle. For determination of brain to plasma ratio the compound is administrated as a subcutaneous, or an intravenous bolus injection, or an intravenous infusion, or an oral administration. At a predetermined time point after the administration a blood sample is taken with cardiac puncture. The rat is terminated by cutting the heart open, and the brain is immediately retained. The blood samples are collected in heparinized tubes and centrifuged within 30 minutes, in order to separate the plasma from the blood cells. The plasma is transferred to 96-well plates and stored at −20° C. until analysis. The brains are divided in half, and each half is placed in a pre-tarred tube and stored at −20° C. until analysis. Prior to the analysis, the brain samples are thawed and 3 mL/g brain tissue of distilled water is added to the tubes. The brain samples are sonicated in an ice bath until the samples are homogenized. Both brain and plasma samples are precipitated with acetonitrile. After centrifugation, the supernatant is diluted with 0.2% formic acid. Analysis is performed on a short reversed-phase HPLC column with rapid gradient elution and MSMS detection using a triple quadrupole instrument with electrospray ionisation and Selected Reaction Monitoring (SRM) acquisition. Liquid-liquid extraction may be used as an alternative sample clean-up. The samples are extracted, by shaking, to an organic solvent after addition of a suitable buffer. An aliquot of the organic layer is transferred to a new vial and evaporated to dryness under a stream of nitrogen. After reconstitution of the residuals the samples are ready for injection onto the HPLC column.

[2] = target: T1, human mGluR5d (Homo sapiens, UniProt P41594); assay: FLIPR assay, functional assessment of mGluR5 antagonism (intracellular calcium mobilization); assay type: cell-based; conditions: cells expressing human mGluR5d; read-out: FLIPR hmGluR5d
T1 construct: expressed in transfected cells; The cells are kept under Hygromycin B and Zeocin selection; The separate IP3 assay names GHEK cells
T1 sequence (P41594 21-942 isoform P41594-3 limits assumed): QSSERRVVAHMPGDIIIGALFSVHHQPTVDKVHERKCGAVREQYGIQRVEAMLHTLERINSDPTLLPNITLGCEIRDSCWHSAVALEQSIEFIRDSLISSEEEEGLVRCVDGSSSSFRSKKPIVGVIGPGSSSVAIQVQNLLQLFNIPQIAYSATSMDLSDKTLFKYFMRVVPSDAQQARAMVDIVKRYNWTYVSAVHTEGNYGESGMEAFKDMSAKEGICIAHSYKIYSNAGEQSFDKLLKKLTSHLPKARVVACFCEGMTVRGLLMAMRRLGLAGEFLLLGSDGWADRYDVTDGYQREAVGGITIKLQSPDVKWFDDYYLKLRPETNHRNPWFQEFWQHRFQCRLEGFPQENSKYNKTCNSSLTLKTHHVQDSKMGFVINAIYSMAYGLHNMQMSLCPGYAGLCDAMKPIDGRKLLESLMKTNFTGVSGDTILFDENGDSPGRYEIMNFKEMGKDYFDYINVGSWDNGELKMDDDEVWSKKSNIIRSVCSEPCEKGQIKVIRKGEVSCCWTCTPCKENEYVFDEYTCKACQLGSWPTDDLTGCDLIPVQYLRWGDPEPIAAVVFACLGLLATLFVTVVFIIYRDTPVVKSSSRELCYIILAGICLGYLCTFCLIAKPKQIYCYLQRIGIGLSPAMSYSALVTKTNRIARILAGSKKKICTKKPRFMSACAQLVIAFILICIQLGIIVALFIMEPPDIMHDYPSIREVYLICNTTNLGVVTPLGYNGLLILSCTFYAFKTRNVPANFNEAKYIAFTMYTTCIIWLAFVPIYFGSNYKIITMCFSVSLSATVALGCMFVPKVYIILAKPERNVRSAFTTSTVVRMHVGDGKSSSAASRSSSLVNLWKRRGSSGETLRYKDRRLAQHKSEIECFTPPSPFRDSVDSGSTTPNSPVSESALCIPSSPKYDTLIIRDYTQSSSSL
Excerpt: Functional Assessment of mGluR5 Antagonism in Cell Lines Expressing mGluR5D
The properties of the compounds of the invention can be analyzed using standard assays for pharmacological activity. Examples of glutamate receptor assays are well known in the art as described in for example Aramori et al., Neuron 8:757 (1992), Tanabe et al., Neuron 8:169 (1992), Miller et al., J. Neuroscience 15: 6103 (1995), Balazs, et al., J. Neurochemistry 69:151 (1997). The methodology described in these publications is incorporated herein by reference. Conveniently, the compounds of the invention can be studied by means of an assay (FLIPR) that measures the mobilization of intracellular calcium, [Ca^2+]i in cells expressing mGluR5 or another assay (IP3) that measures inositol phosphate turnover.
Cells expressing human mGluR5d as described in WO97/05252 cultured in a mixture of high glucose DMEM with Glutamax (31966-021)(500 mL), 10% dialyzed fetal bovine serum (Hyclone #SH30079.03)(56 mL), 200 μg/mL Hygromycin B (Invitrogen 45-0430, 50 mg/mL)(2.2 mL), 200 μg/mL Zeocin (Invitrogen #R250-01; 100 mg/l mL)(1.1 mL) are seeded at a density of 100,000 cells per well on collagen coated clear bottom 96-well plates with black sides and cells were allowed to adhere over night before experiments. All assays are done in a buffer containing 146 mM NaCl, 5 mM KCl, 1 mM MgCl2, 1 mM CaCl2, 20 mM HEPES, 1 mg/mL glucose and 1 mg/mL BSA Fraction IV (pH 7.4). Cell cultures in the 96-well plates are loaded for 60 minutes in the above mentioned buffer containing 6 μM of the acetoxymethyl ester form of the fluorescent calcium indicator fluo-3 (Molecular Probes, Eugene, Oreg.) in 0.025% pluronic acid (a proprietary, non-ionic surfactant polyol—CAS Number 9003-11-6). […] The fluorescence signal is sampled 50 times at 1-second intervals followed by 3 samples at 5-second intervals immediately after each of the two additions. Responses are measured as the difference between the peak heights of the response to agonist, less the background fluorescence within the sample period. […]

Row | Kp [1] | pIC50 [2] | SMILES
1 | 0.19 | 7.21 | CN(C(=O)c1cc(-c2cccc(Cl)c2)on1)c1nnc(-c2cn[nH]c(=O)c2)n1C [Example 3, 5-(3-Chlorophenyl)-N-methyl-N-[4-methyl-5-(6-oxo-1,6-dihydropyridazin-4-yl)-4H-1,2,4-triazol-3-yl]isoxazole-3-carboxamide]
2 | 0.26 | 7.43 | CN(C(=O)c1cc(-c2cccc(Cl)c2)on1)c1nnc(-c2ccncc2)n1C [Example 1, 5-(3-Chlorophenyl)-N-methyl-N-(4-methyl-5-pyridin-4-yl-4H-1,2,4-triazol-3-yl)isoxazole-3-carboxamide]
3 | < 0.01 | 6.25 | Cc1cccc(-n2nnc(C(=O)N(C)c3nnc(-c4cn[nH]c(=O)c4)n3C)n2)c1 [Example 4, N-Methyl-N-[4-methyl-5-(6-oxo-1,6-dihydropyridazin-4-yl)-4H-1,2,4-triazol-3-yl]-2-(3-methylphenyl)-2H-tetrazole-5-carboxamide]
